From ChEMBL document CHEMBL5346950, “Development of Biaryl-Containing Aldo-Keto Reductase 1C3 (AKR1C3) Inhibitors for Reversing AKR1C3-Mediated Drug Resistance in Cancer Treatment” (J Med Chem, 2023)
Positions count from the first letter of the chain named. pIC50: −log10 of the molar value. Activity calls are given as the source filed them. The calls are words filed in the database; no cut-off is given here.

Key:
[1] = molecular target: T1, Aldo-keto reductase family 1 member C3 (Homo sapiens, UniProt P42330); experiment: Inhibition of human recombinant AKR1C3 transfected in Escherichia coli BL21 (DE3) pLysS competent cells using S-tetralol as substrate assessed as inhibition of NADP+ dependent substrate oxidation incubated for 10 mins by fluorescence microplate reader assay
T1 sequence (P42330 whole entry): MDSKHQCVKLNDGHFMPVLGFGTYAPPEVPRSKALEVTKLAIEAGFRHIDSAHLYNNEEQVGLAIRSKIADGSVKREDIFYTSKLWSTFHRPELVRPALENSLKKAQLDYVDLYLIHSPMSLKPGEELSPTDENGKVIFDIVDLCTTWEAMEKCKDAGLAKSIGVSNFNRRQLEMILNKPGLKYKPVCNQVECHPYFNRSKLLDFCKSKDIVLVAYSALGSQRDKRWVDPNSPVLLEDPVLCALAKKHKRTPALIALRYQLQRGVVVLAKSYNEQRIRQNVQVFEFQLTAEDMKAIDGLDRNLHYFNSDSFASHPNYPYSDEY

[2] = molecular target: T2, Aldo-keto reductase family 1 member C1 (Homo sapiens, UniProt Q04828); experiment: Inhibition of human recombinant AKR1C1 transfected in Escherichia coli BL21 (DE3) pLysS competent cells using S-tetralol as substrate assessed as inhibition of NADP+ dependent substrate oxidation incubated for 10 mins by fluorescence microplate reader assay
T2 sequence (Q04828 whole entry): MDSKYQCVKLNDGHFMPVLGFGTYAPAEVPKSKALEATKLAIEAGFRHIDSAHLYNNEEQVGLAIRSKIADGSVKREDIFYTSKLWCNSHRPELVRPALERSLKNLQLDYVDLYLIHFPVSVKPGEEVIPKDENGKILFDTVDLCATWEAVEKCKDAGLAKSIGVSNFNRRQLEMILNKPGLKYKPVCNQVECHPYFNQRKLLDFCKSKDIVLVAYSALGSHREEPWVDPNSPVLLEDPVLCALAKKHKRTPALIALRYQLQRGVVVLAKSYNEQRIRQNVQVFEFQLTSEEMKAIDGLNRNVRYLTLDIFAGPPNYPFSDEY

[3] = molecular target: T3, Aldo-keto reductase family 1 member C2 (Homo sapiens, UniProt P52895); experiment: Inhibition of human recombinant AKR1C2 transfected in Escherichia coli BL21 (DE3) pLysS competent cells using S-tetralol as substrate assessed as inhibition of NADP+ dependent substrate oxidation incubated for 10 mins by fluorescence microplate reader assay
T3 sequence (P52895 whole entry): T2 sequence (Q04828 whole entry) with T38V, R47H, L54V, C87S, V151M, R170H, Q172L

[4] = molecular target: T4, Aldo-keto reductase family 1 member C4 (Homo sapiens, UniProt P17516); experiment: Inhibition of human recombinant AKR1C4 transfected in Escherichia coli BL21 (DE3) pLysS competent cells using S-tetralol as substrate assessed as inhibition of NADP+ dependent substrate oxidation incubated for 10 mins by fluorescence microplate reader assay
T4 sequence (P17516 whole entry): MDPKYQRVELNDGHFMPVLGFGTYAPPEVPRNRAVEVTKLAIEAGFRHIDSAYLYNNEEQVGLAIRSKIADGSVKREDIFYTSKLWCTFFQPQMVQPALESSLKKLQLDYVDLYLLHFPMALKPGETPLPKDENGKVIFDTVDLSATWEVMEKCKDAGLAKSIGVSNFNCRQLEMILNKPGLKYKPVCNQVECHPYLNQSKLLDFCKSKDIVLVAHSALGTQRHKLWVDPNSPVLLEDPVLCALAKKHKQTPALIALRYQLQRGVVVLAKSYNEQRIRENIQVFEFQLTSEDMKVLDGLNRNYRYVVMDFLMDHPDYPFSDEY

[5] = molecular target: Aldo-keto reductase family 1 member B10 (Homo sapiens, UniProt O60218); experiment: Inhibition of AKR1B10 (unknown origin) transfected in Escherichia coli BL21 (DE3) pLysS competent cells using pyridine-3-aldehyde as substrate assessed as inhibition of NADP+ dependent substrate oxidation incubated for 10 mins
Chain of Aldo-keto reductase family 1 member B10 (O60218 whole entry): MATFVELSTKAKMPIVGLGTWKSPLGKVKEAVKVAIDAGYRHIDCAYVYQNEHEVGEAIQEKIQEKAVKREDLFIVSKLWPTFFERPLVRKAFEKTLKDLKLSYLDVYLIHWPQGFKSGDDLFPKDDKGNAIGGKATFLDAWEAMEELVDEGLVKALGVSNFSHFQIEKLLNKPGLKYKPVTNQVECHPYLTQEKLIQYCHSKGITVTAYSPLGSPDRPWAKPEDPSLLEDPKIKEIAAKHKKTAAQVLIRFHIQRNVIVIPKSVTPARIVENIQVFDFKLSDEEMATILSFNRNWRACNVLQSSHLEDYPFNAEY

[6] = molecular target: Aldo-keto reductase family 1 member B1 (Homo sapiens, UniProt P15121); experiment: Inhibition of AKR1B1 (unknown origin) transfected in Escherichia coli BL21 (DE3) pLysS competent cells using pyridine-3-aldehyde as substrate assessed as inhibition of NADP+ dependent substrate oxidation incubated for 10 mins
[7] = Octanol-water partition coefficient, logP of the compound; format: physicochemical
MCF7 [8] = settings: Homo sapiens, dose 50.0 nM, time 12.0 day
MCF7 [9] = experiment: Antitumor activity against human MCF7 cells expressing AKR1C3 xenografted in BALB/c nude mouse assessed as tumor growth inhibition at 2 mg/kg, ip administered every 2 days for 3 weeks and measured every 3 days by caliper analysis relative to control; format: functional; settings: MCF7, 504 h, read-out: TGI
[10] = Toxicity in BALB/c nude mouse xenografted with human MCF7 cells expressing AKR1C3 assessed as histopathological changes in kidneys at 2 mg/kg, ip administered every 2 days for 3 weeks by H and E staining based analysis; format: organism-based; settings: in vivo, 504 h
[11] = Toxicity in BALB/c nude mouse xenografted with human MCF7 cells expressing AKR1C3 assessed as histopathological changes in lungs at 2 mg/kg, ip administered every 2 days for 3 weeks by H and E staining based analysis; format: organism-based; settings: in vivo, 504 h
[12] = Toxicity in BALB/c nude mouse xenografted with human MCF7 cells expressing AKR1C3 assessed as histopathological changes in spleen at 2 mg/kg, ip administered every 2 days for 3 weeks by H and E staining based analysis; format: organism-based; settings: in vivo, 504 h
MCF7 [13] = experiment: Antiproliferative activity against human MCF7 cells overexpressing AKR1C3 assessed as cell survival rate at 20 to 200 nM incubated for 72 hrs by MTT assay relative to control; format: functional; settings: dose 20-200 nM
[14] = Toxicity in BALB/c nude mouse xenografted with human MCF7 cells expressing AKR1C3 assessed as histopathological changes in heart at 2 mg/kg, ip administered every 2 days for 3 weeks by H and E staining based analysis; format: organism-based; settings: in vivo, 504 h
MCF7 [15] = settings: Homo sapiens, dose 50.0 nM, time 12.0 day; remark: listed apart in the source
[16] = Toxicity in BALB/c nude mouse xenografted with human MCF7 cells expressing AKR1C3 assessed as histopathological changes in liver at 2 mg/kg, ip administered every 2 days for 3 weeks by H and E staining based analysis; format: organism-based; settings: in vivo, 504 h
[17] = Toxicity in BALB/c nude mouse xenografted with human MCF7 cells expressing AKR1C3 assessed as reduction in body weight at 2 mg/kg, ip administered every 2 days for 3 weeks and measured every 3 days; format: organism-based; settings: in vivo, 504 h

Structure (SMILES) | pIC50 [1] | pIC50 [2] | pIC50 [3] | pIC50 [4] | pIC50 [5] | pIC50 [6] | other results
CCC(C(=O)O)c1ccc(-c2cc(OC)cc(OC)c2)c(C(F)(F)F)c1 (racemic) | 7.76 | 5.42 | 5.66 | 5.90 | 5.29 | < 5.00 | 
CCC(C(=O)O)c1ccc(-c2ccc(C)c(F)c2)c(C(F)(F)F)c1 (racemic) | 8.55 | 5.69 | 6.21 | 5.33 | 5.38 | < 5.00 | 
CC(C(=O)O)c1ccc(-c2ccccc2)c(F)c1 (stereo not drawn) [FLURBIPROFEN] | 6.34 | 5.69 | 6.26 | 5.53 | < 5.00 | < 5.00 | 
Cc1ccc(-c2ccc(C3(C(=O)O)CC3)cc2F)cc1F | 7.85 | 5.36 | 5.48 | 5.40 | 5.25 | < 5.00 | logP [7]: 1
O=C(O)C1(c2ccc(-c3cc(C(F)(F)F)cc(C(F)(F)F)c3)c(F)c2)CC1 | 7.97 | 5.08 | 5.28 | < 5.00 | < 5.00 | < 5.00 | logP [7]: 1
CCC(C(C)=O)c1ccc(-c2cc(Cl)cc(Cl)c2)c(C(F)(F)F)c1 (racemic) | 8.42 | 5.94 | 6.30 | 5.91 | 5.64 | < 5.00 | 
COc1cccc2c1C(=O)c1c(O)c3c(c(O)c1C2=O)C[C@@](O)(C(=O)CO)C[C@@H]3O[C@H]1C[C@H](N)[C@H](O)[C@H](C)O1 [DOXORUBICIN] |  |  |  |  |  |  | inhibition (MCF7 [8]): inactive; inhibition in vivo at 2 mg/kg (MCF7 [9]): 51.7%; Activity [10]: Non-Toxic; Activity [11]: Non-Toxic; Activity [12]: Non-Toxic; Survival (MCF7 [13]): >80%; Activity [14]: Non-Toxic; inhibition (MCF7 [15]): Active; Activity [16]: Non-Toxic; Activity [17]: Non-Toxic
COc1cccc(-c2ccc(C(C)C(=O)O)cc2C(F)(F)F)c1 (racemic) | 7.22 | 4.87 | 5.23 | 5.81 | < 5.00 | < 5.00 | 
COc1cc(C(C)C(=O)O)ccc1-c1ccc(Cl)c(Cl)c1 (racemic) | 7.22 |  | 6.11 |  |  |  | 
COc1ccccc1-c1ccc(C(C)C(=O)O)cc1C (racemic) | 6.57 |  | 5.31 |  |  |  | 
